Source: the NIST ThermoML archive (doi:10.1016/j.jct.2012.03.003)

Experiment: xn = mol fraction of the nth substance listed
Conditions: Liquid, Vibrating tube method

COc1cc2c(cc1O)CC1c3c(cc(O)c(OC)c3-2)CCN1C (stereo not given) [boldine] + CCCO
Conditions | mass density [kg/m3]
313.09 K, 1000 kPa, x1 = 0.0142 | 812.51
313.09 K, 2000 kPa, x1 = 0.0142 | 813.26
313.09 K, 3000 kPa, x1 = 0.0142 | 814.02
313.09 K, 4000 kPa, x1 = 0.0142 | 814.8
313.09 K, 5000 kPa, x1 = 0.0142 | 815.58
313.09 K, 6000 kPa, x1 = 0.0142 | 816.36
313.09 K, 7000 kPa, x1 = 0.0142 | 817.15
313.09 K, 8000 kPa, x1 = 0.0142 | 817.95
313.09 K, 9000 kPa, x1 = 0.0142 | 818.75
313.09 K, 10000 kPa, x1 = 0.0142 | 819.54
313.09 K, 11000 kPa, x1 = 0.0142 | 820.32
313.09 K, 12000 kPa, x1 = 0.0142 | 821.12
313.09 K, 13000 kPa, x1 = 0.0142 | 821.89
313.09 K, 14000 kPa, x1 = 0.0142 | 822.65
313.09 K, 15000 kPa, x1 = 0.0142 | 823.42
313.09 K, 16000 kPa, x1 = 0.0142 | 824.16
313.09 K, 17000 kPa, x1 = 0.0142 | 824.91
313.09 K, 18000 kPa, x1 = 0.0142 | 825.63
313.09 K, 19000 kPa, x1 = 0.0142 | 826.34
313.09 K, 20000 kPa, x1 = 0.0142 | 827.03
313.14 K, 1000 kPa, x1 = 0.0046 | 797.2
313.14 K, 2000 kPa, x1 = 0.0046 | 797.97
313.14 K, 3000 kPa, x1 = 0.0046 | 798.75
313.14 K, 4000 kPa, x1 = 0.0046 | 799.53
313.14 K, 5000 kPa, x1 = 0.0046 | 800.32
313.14 K, 6000 kPa, x1 = 0.0046 | 801.13
313.14 K, 7000 kPa, x1 = 0.0046 | 801.93
313.14 K, 8000 kPa, x1 = 0.0046 | 802.74
313.14 K, 9000 kPa, x1 = 0.0046 | 803.55
313.14 K, 10000 kPa, x1 = 0.0046 | 804.36
313.14 K, 11000 kPa, x1 = 0.0046 | 805.17
313.14 K, 12000 kPa, x1 = 0.0046 | 805.97
313.14 K, 13000 kPa, x1 = 0.0046 | 806.77
313.14 K, 14000 kPa, x1 = 0.0046 | 807.55
313.14 K, 15000 kPa, x1 = 0.0046 | 808.32
313.14 K, 16000 kPa, x1 = 0.0046 | 809.08
313.14 K, 17000 kPa, x1 = 0.0046 | 809.85
313.14 K, 18000 kPa, x1 = 0.0046 | 810.58
313.14 K, 19000 kPa, x1 = 0.0046 | 811.3
313.14 K, 20000 kPa, x1 = 0.0046 | 812.01
313.15 K, 1000 kPa, x1 = 0.0018 | 790.99
313.15 K, 1000 kPa, x1 = 0.0077 | 801.14
313.15 K, 1000 kPa, x1 = 0.0112 | 807.94
313.15 K, 2000 kPa, x1 = 0.0018 | 791.76
313.15 K, 2000 kPa, x1 = 0.0077 | 801.89
313.15 K, 2000 kPa, x1 = 0.0112 | 808.71
313.15 K, 3000 kPa, x1 = 0.0018 | 792.55
313.15 K, 3000 kPa, x1 = 0.0077 | 802.66
313.15 K, 3000 kPa, x1 = 0.0112 | 809.47
313.15 K, 4000 kPa, x1 = 0.0018 | 793.33
313.15 K, 4000 kPa, x1 = 0.0077 | 803.44
313.15 K, 4000 kPa, x1 = 0.0112 | 810.25
313.15 K, 5000 kPa, x1 = 0.0018 | 794.13
313.15 K, 5000 kPa, x1 = 0.0077 | 804.23
313.15 K, 5000 kPa, x1 = 0.0112 | 811.06
313.15 K, 6000 kPa, x1 = 0.0018 | 794.94
313.15 K, 6000 kPa, x1 = 0.0077 | 805.03
313.15 K, 6000 kPa, x1 = 0.0112 | 811.83
313.15 K, 7000 kPa, x1 = 0.0018 | 795.75
313.15 K, 7000 kPa, x1 = 0.0077 | 805.83
313.15 K, 7000 kPa, x1 = 0.0112 | 812.63
313.15 K, 8000 kPa, x1 = 0.0018 | 796.57
313.15 K, 8000 kPa, x1 = 0.0077 | 806.63
313.15 K, 8000 kPa, x1 = 0.0112 | 813.42
313.15 K, 9000 kPa, x1 = 0.0018 | 797.38
313.15 K, 9000 kPa, x1 = 0.0077 | 807.44
313.15 K, 9000 kPa, x1 = 0.0112 | 814.2
313.15 K, 10000 kPa, x1 = 0.0018 | 798.19
313.15 K, 10000 kPa, x1 = 0.0077 | 808.25
313.15 K, 10000 kPa, x1 = 0.0112 | 815
313.15 K, 11000 kPa, x1 = 0.0018 | 799.01
313.15 K, 11000 kPa, x1 = 0.0077 | 809.05
313.15 K, 11000 kPa, x1 = 0.0112 | 815.81
313.15 K, 12000 kPa, x1 = 0.0018 | 799.83
313.15 K, 12000 kPa, x1 = 0.0077 | 809.85
313.15 K, 12000 kPa, x1 = 0.0112 | 816.58
313.15 K, 13000 kPa, x1 = 0.0018 | 800.62
313.15 K, 13000 kPa, x1 = 0.0077 | 810.64
313.15 K, 13000 kPa, x1 = 0.0112 | 817.36
313.15 K, 14000 kPa, x1 = 0.0018 | 801.41
313.15 K, 14000 kPa, x1 = 0.0077 | 811.41
313.15 K, 14000 kPa, x1 = 0.0112 | 818.14
313.15 K, 15000 kPa, x1 = 0.0018 | 802.19
313.15 K, 15000 kPa, x1 = 0.0077 | 812.18
313.15 K, 15000 kPa, x1 = 0.0112 | 818.89
313.15 K, 16000 kPa, x1 = 0.0018 | 802.95
313.15 K, 16000 kPa, x1 = 0.0077 | 812.94
313.15 K, 16000 kPa, x1 = 0.0112 | 819.65
313.15 K, 17000 kPa, x1 = 0.0018 | 803.72
313.15 K, 17000 kPa, x1 = 0.0077 | 813.69
313.15 K, 17000 kPa, x1 = 0.0112 | 820.39
313.15 K, 18000 kPa, x1 = 0.0018 | 804.46
313.15 K, 18000 kPa, x1 = 0.0077 | 814.42
313.15 K, 18000 kPa, x1 = 0.0112 | 821.12
313.15 K, 19000 kPa, x1 = 0.0018 | 805.19
313.15 K, 19000 kPa, x1 = 0.0077 | 815.14
313.15 K, 19000 kPa, x1 = 0.0112 | 821.85
313.15 K, 20000 kPa, x1 = 0.0018 | 805.9
313.15 K, 20000 kPa, x1 = 0.0077 | 815.85
313.15 K, 20000 kPa, x1 = 0.0112 | 822.53
323.1 K, 1000 kPa, x1 = 0.0018 | 782.67
323.1 K, 2000 kPa, x1 = 0.0018 | 783.52
323.1 K, 3000 kPa, x1 = 0.0018 | 784.36
323.1 K, 4000 kPa, x1 = 0.0018 | 785.2
323.1 K, 5000 kPa, x1 = 0.0018 | 786.06
323.1 K, 6000 kPa, x1 = 0.0018 | 786.91
323.1 K, 7000 kPa, x1 = 0.0018 | 787.78
323.1 K, 8000 kPa, x1 = 0.0018 | 788.64
323.1 K, 9000 kPa, x1 = 0.0018 | 789.49
323.1 K, 10000 kPa, x1 = 0.0018 | 790.35
323.1 K, 11000 kPa, x1 = 0.0018 | 791.2
323.1 K, 12000 kPa, x1 = 0.0018 | 792.05
323.1 K, 13000 kPa, x1 = 0.0018 | 792.88
323.1 K, 14000 kPa, x1 = 0.0018 | 793.69
323.1 K, 15000 kPa, x1 = 0.0018 | 794.51
323.1 K, 16000 kPa, x1 = 0.0018 | 795.32
323.1 K, 17000 kPa, x1 = 0.0018 | 796.1
323.1 K, 18000 kPa, x1 = 0.0018 | 796.89
323.1 K, 19000 kPa, x1 = 0.0018 | 797.65
323.1 K, 20000 kPa, x1 = 0.0018 | 798.39
323.11 K, 1000 kPa, x1 = 0.0112 | 799.52
323.11 K, 1000 kPa, x1 = 0.0142 | 804.17
323.11 K, 2000 kPa, x1 = 0.0112 | 800.32
323.11 K, 2000 kPa, x1 = 0.0142 | 804.99
323.11 K, 3000 kPa, x1 = 0.0112 | 801.16
323.11 K, 3000 kPa, x1 = 0.0142 | 805.81
323.11 K, 4000 kPa, x1 = 0.0112 | 801.99
323.11 K, 4000 kPa, x1 = 0.0142 | 806.63
323.11 K, 5000 kPa, x1 = 0.0112 | 802.82
323.11 K, 5000 kPa, x1 = 0.0142 | 807.51
323.11 K, 6000 kPa, x1 = 0.0112 | 803.66
323.11 K, 6000 kPa, x1 = 0.0142 | 808.3
323.11 K, 7000 kPa, x1 = 0.0112 | 804.52
323.11 K, 7000 kPa, x1 = 0.0142 | 809.14
323.11 K, 8000 kPa, x1 = 0.0112 | 805.34
323.11 K, 8000 kPa, x1 = 0.0142 | 809.97
323.11 K, 9000 kPa, x1 = 0.0112 | 806.15
323.11 K, 9000 kPa, x1 = 0.0142 | 810.81
323.11 K, 10000 kPa, x1 = 0.0112 | 807.01
323.11 K, 10000 kPa, x1 = 0.0142 | 811.64
323.11 K, 11000 kPa, x1 = 0.0112 | 807.85
323.11 K, 11000 kPa, x1 = 0.0142 | 812.47
323.11 K, 12000 kPa, x1 = 0.0112 | 808.67
323.11 K, 12000 kPa, x1 = 0.0142 | 813.28
323.11 K, 13000 kPa, x1 = 0.0112 | 809.47
323.11 K, 13000 kPa, x1 = 0.0142 | 814.1
323.11 K, 14000 kPa, x1 = 0.0112 | 810.29
323.11 K, 14000 kPa, x1 = 0.0142 | 814.89
323.11 K, 15000 kPa, x1 = 0.0112 | 811.07
323.11 K, 15000 kPa, x1 = 0.0142 | 815.69
